From patent US20040101827A1, “Methods of infection with hepatitis c virus” (priority 2000, published 2004)

System: HCV
Assay: Yield of HCV (HCV RNA level) in culture supernatant of HCV cDNA-introduced IMY42-5 cells, real-time detection RT-PCR
Format: cell-based, hepatitis C virus
Details: ribavirin 0, 25, 50, 100, 200 μM added simultaneously with Tam, cultured for 2 days (FIG. 10)
Protocol: IMY42-5 cells were prepared by incorporating into IMY-N9 cells, pCALN/HCV RBZ and CAG-Mer-Cre-Mer (Nucleic Acids Res., 1996, 24(4), 543-548) that expresses active Cre recombinant enzyme by adding tamoxifen co-expressed constitutively therein. When tamoxifen acts on the cells, the stuffer region of pCALN/HCV RBZ was looped out and HCV cDNA was expressed.
IMY42-5 cells (2.5×10^5/ml) were inoculated, 100 μl/well in a 96-well plate, and then cultured overnight at 37° C. under 5% CO2 atmosphere. Then 4-hydroxi-tamoxifen (Tam) was added at a concentration of 100 nM. On the next day and 3 days after the addition of Tam, the culture supernatant was collected. RNA in the culture supernatant was extracted using ISOGEN-LS (Wako Pure Chemical Industries, Ltd.), and then HCV RNA levels were quantified by the Real-time detection RT-PCR (Takeuchi T. et al; Gastroenterology 1999; 116: 636-642) method.
CsA (100, 10, 1 and 0 nM) was added simultaneously with the addition of Tam to IMY42-5 cells. The cells were cultured for 3 days, and then HCV RNA levels in the culture supernatant was measured by Real-time detection RT-PCR.
Ribavirin (0, 25, 50, 100, 200 μM) was added simultaneously with the addition of Tam to IMY42-5 cells. The cells were cultured for 2 days, and then HCV RNA levels in the culture supernatant were measured.

`NC(=O)c1ncn([C@@H]2O[C@H](CO)[C@@H](O)[C@H]2O)n1` [Ribavirin, ribavirin] was tested, and the “HCV RNA levels in the culture supernatant (yield of virus)” value was “no decrease”.
